Data as given in patent publication US20120165384A1, “INHIBITION OF HISTONE ACETYLTRANSFERASES BY CTK7A AND METHODS THEREOF” (JAWAHARLAL NEHRU CENTRE FOR ADVANCED SCIENTIFIC RESEARCH, priority 2009, published 2012).

Assays:
KB cell xenografts = test: Xenograft growth assay; format: in vivo, nude mice (BALB/c); conditions: i.p. 100 mg/kg body weight/twice a day; p<0.05
Method: (§1) Animal experiments were performed with the approval by authorized ethics Committee. Sixteen nude mice (BALB/c) were included in the experiments (10 male and 6 female mice). Mice were kept in isolators in a pathogen free environment. All nude mice were 3-4 weeks old at the start of the experiments. KB cells, 2×10^6 cells were inoculated in each mice in the right and left flanks, respectively. Mice were then divided in two groups (5 males and 3 females) in each group. After the tumors grown to palpable in size, CTK7A treatment were given intraperitoneally (i.p) with 100 mg/kg body weight/twice a day. Tumors were measured once in three days with a caliper and their volumes were calculated by the formula: 0.52×D1×(D2)^2, where ‘D1’ and ‘D2’ are, respectively, the longest and shortest dimension. The last dose of the compound (CTK7A) was administered four hour before sacrificing it. Tumors were removed and put into liquid nitrogen or were fixed in 10% formalin for 1-2 h to make blocks to be used for IHC. For comparing tumor sizes between treated and control one-way ANOVA was performed using “Sigmaplot Software”. P-value<0.05 was considered as statistically significant.

KB cell tumors = test: Immunohistochemistry of KB cell tumors from treated mice; format: in vivo, nude mice (BALB/c)
Method: After deparafinizing, slides were rinsed in ethanol. Antigen retrieval was performed with sodium citrate (10 mM pH 6.0) for 5 min at 98° C. The staining was performed with the Envision kit (Dako, Denmark). Counterstaining was performed with Mayer's haematoxylin, and mounted in DPX and air dried. Each of the sample specimens was pathologically confirmed before carrying out the immunohistochemistry. For statistical analysis, cells (100 cells from a total of 5-6 independent fields) were counted from both normal and tumor tissue sections and scored for percentage of positive cells (brown colour) for the indicated antibodies. For comparison one-way ANOVA was performed using “Sigmaplot Software”. P-value<0.01 was considered as statistically significant, n=31.
as §1

[1] = Toxicity in mice after intraperitoneal administration; format: in vivo
Method: The in vitro and cell line based studies prompted us to study the role of CTK7A in xenograft mice. […] In order to test the effect of CTK7A on tumor growth, KB cells (2×10^6 cells) were inoculated in nude mice in the right and left flanks, respectively and treated them intraperitoneally with 100 mg/kg body weight/twice a day (for detail see Materials and Methods). […] KB cell tumors were 50% smaller in mice treated with CTK7A than in control untreated mice. The differences in the tumor size between xenografts (Control vs treated) was statistically significant (p<0.05). The levels of H3 acetylation and that of other proteins (e.g. NPM1, GAPDH, p300) were determined using IHC. […] It was observed that CTK7A decreased the levels of H3K9, K14 acetylation (as probed by H3AcK9AcK14) and ac-p300 (FIG. 6b and FIG. 6c). Further to see the site specific effect of CTK7A mediated HAT inhibition on histone acetylation, IHC was done with site specific antibodies. […] Moreover, the levels of COX2, which is induced in many cell types by mitogens, growth factors, cytokine and tumor promoters and has been implicated in many cancers, including oral cancer was also found to be suppressed in CTK7A treated tumors (FIG. 6b).

HDAC1 = HDAC1 (Homo sapiens, UniProt Q13547); test: Histone deacetylase assay, HDAC1; format: biochemical; conditions: even at 100 μM
HDAC1, sequence (Q13547 whole entry, species assumed): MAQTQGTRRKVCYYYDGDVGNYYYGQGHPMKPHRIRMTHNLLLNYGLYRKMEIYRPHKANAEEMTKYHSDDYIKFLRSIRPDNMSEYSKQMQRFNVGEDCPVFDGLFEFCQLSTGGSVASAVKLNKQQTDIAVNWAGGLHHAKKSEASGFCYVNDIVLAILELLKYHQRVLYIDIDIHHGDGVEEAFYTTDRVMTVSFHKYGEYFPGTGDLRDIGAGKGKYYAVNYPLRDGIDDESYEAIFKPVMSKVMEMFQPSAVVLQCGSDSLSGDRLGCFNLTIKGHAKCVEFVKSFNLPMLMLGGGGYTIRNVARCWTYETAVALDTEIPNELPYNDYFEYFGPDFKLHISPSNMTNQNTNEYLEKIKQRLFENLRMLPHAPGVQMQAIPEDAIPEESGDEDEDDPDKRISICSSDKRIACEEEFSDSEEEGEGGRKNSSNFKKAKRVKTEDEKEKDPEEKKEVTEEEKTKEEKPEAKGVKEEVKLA
Method: The deacetylation assay was performed as per standard protocol^31. For SirT2 deacetylase assay, 50 ng of bacterially expressed, recombinant enzyme was added in the presence or absence of cofactor NAD^+. HMTase was performed as reported earlier^31.

[2] = test system: cyclin E and cyclin D1 expression in KB cells; test: Cyclin expression in KB cells; format: cell-based
Method: KB cells were maintained in Dullbecco's modified Eagle medium (DMEM) with 10% fetal bovine serum (FBS) at 37° C. with a 5% CO2 atmosphere in a humidified incubator. For IFNγ and GSNO treatment, KB cells were incubated in the presence of IFNγ 10 ng ml^−1 for an additional 16 h and 24 h respectively. Immunofluorescent staining of cells for confocal microscopy was carried out as described previously^30. CTK7A treatment was done for 24 h followed by acid extraction of histone and immunoblotting as per standard protocol^31. For whole cell extract preparation RIPA buffer (Tris-HCl 50 mM, pH 7.4 NP-40 1%, Na-deoxycholate 0.25%, NaCl 150 mM, EDTA 1 mM, Phenylmethylsulfonyl fluoride (PMSF), 1 mM Na3VO4, 1 mM NaF and protease inhibitor cocktail) was used.

p300 = p300 (Homo sapiens, UniProt Q09472); test: p300 autoacetylation enhanced by cocktail of HDAC inhibitors (immunoprecipitation); format: cell-based
p300, sequence (Q09472 whole entry, species assumed): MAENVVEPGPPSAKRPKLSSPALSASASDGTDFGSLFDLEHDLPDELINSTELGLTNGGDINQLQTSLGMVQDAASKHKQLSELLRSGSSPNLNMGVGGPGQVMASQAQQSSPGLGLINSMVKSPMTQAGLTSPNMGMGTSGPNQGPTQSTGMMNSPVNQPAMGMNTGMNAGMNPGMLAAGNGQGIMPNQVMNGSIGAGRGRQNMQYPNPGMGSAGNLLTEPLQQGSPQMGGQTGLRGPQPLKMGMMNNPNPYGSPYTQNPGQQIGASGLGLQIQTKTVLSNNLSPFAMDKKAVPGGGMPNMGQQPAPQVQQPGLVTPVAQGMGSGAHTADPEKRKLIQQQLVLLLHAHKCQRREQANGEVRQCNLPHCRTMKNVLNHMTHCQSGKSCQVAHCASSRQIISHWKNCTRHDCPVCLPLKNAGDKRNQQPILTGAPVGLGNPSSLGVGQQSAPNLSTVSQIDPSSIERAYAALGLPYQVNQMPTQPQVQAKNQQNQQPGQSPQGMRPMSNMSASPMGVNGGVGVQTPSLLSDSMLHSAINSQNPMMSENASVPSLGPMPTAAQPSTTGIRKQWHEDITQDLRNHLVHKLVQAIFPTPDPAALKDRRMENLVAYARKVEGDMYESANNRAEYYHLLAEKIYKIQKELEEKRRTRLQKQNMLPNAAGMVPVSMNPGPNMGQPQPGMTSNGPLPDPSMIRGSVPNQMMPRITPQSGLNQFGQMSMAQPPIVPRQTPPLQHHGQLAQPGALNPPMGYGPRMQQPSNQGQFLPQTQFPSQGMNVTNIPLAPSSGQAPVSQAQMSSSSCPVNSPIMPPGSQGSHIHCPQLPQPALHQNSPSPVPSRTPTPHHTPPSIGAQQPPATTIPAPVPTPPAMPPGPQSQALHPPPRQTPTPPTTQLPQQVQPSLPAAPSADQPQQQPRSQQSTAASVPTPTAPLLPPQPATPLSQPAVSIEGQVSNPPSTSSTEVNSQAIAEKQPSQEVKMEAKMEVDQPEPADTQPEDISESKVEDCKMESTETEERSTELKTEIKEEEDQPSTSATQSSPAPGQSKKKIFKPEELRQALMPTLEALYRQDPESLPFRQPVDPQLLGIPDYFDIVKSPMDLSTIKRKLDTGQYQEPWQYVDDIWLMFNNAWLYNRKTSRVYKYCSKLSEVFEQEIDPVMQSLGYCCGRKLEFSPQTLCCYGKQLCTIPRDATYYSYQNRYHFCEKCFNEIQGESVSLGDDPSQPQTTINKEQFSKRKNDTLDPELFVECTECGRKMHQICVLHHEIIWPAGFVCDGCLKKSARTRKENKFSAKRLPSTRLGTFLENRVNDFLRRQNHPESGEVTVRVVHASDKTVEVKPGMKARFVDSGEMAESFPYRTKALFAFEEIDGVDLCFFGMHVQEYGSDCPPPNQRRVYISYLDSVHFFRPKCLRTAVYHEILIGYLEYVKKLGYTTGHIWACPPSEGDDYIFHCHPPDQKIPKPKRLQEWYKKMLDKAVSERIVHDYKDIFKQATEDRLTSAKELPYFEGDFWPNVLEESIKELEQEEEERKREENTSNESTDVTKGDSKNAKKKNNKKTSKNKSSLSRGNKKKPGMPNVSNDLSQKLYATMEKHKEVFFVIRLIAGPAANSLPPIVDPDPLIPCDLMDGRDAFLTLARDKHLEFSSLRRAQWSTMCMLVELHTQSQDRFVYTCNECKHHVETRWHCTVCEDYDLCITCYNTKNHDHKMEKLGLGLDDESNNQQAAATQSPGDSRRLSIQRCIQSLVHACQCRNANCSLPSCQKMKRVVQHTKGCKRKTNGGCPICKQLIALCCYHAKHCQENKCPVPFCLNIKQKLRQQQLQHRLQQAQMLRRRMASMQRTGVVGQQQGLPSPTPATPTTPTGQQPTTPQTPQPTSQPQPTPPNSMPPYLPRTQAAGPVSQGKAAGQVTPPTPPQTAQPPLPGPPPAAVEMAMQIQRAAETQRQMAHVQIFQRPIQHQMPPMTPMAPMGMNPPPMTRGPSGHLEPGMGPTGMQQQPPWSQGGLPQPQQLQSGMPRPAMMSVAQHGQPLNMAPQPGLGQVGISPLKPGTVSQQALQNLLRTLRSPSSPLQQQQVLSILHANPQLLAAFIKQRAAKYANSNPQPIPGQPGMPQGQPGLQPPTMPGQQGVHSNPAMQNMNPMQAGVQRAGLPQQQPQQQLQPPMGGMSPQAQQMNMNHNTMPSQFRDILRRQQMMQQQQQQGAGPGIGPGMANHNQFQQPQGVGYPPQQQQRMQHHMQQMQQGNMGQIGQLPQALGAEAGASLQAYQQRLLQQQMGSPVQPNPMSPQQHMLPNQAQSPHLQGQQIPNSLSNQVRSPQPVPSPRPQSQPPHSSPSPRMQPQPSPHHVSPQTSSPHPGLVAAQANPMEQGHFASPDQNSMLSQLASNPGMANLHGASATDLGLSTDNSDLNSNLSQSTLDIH
Method: Whole cell extract were prepared using RIPA buffer as mentioned above. The pre-blocked protein-G sepharose-bound antibody (4 μg) was incubated with 500 μg whole cell lysate overnight at 4° C. After extensive washes, bead-bound protein were analysed by western blotting with indicated antibodies. For HDAC inhibitors treatment, 5 mM sodium butyrate, 5 mM nicotiamide and 100 ng ml^−1 TSA were added 10 h before cells were harvest^36.

KB cells = test: FACS cell cycle analysis; format: cell-based; conditions: 24 h, concentration dependent
Method: KB cells were grown in the presence or absence of CTK7A for 24 h with the indicated concentration. Cells were grown in presence of CTK7A for 2 h in absence of serum followed by addition of 10% Serum. Briefly cells were harvested by mild trypsinization (0.25%) followed by centrifugation at 2000 rpm for 10 minutes at 4° C. Cells were washed with cold PBS by centrifugation at 2000 rpm for 10 minutes at 4° C. Cells were fixed in cold 70% Ethanol which was added drop wise along with mild vortexing.
Samples were left for 12 hrs, after which Ethanol was removed followed by two washes in cold PBS. RNase (100 μg/ml) treatment was subsequently given at 37° C./30 minutes to ensure only DNA staining. 50 μg/ml Propidium Iodide was added for staining. Cells were sorted and analyzed by flow cytometry for the cell cycle distribution using inbuilt software of BD FACScalibur instrument. Analysis was done in FL2 channel.

COc1cc([O-])cc(C=CC2=NN(c3ccc(C(=O)[O-])cc3)C(C=Cc3cc([O-])cc(OC)c3)C2)c1.[Na+].[Na+].[Na+] (stereo not drawn) [CTK7A, Sodium 4-(3,5-bis(3-methoxy-5-oxidostyryl)-4,5dihydro-1H-pyrazole-1-yl)benzoate]
KB cell tumors smaller than in control untreated mice (KB cell xenografts): 50% | levels of COX2 in tumors (IHC) (KB cell tumors; i.p. 100 mg/kg twice a day): suppressed | levels of GAPDH in tumors (IHC) (KB cell tumors; i.p. 100 mg/kg twice a day): down regulated | levels of H3K9, K14 acetylation (H3AcK9AcK14) in tumors (IHC) (KB cell tumors; i.p. 100 mg/kg twice a day): decreased | levels of NPM1 in tumors (IHC) (KB cell tumors; i.p. 100 mg/kg twice a day): down regulated | levels of ac-p300 in tumors (IHC) (KB cell tumors; i.p. 100 mg/kg twice a day): decreased | levels of iNOS in tumors (IHC) (KB cell tumors; i.p. 100 mg/kg twice a day): down regulated | p300 expression in tumors (IHC) (KB cell tumors; i.p. 100 mg/kg twice a day): marginal affect | proliferation marker Ki-67 in tumors (IHC) (KB cell tumors; i.p. 100 mg/kg twice a day): down regulation | nuclear GAPDH in tumors (IHC) (KB cell tumors; present in control mice): absent or very faintly present | inhibition of H3K14 acetylation compared with H3K9 acetylation in tumors (IHC) (KB cell tumors; site specific antibodies): more potently | body weight loss ([1]; doses up to 100 mg/kg body weight/twice a day during 1 month): no observed weight loss | toxicity to mice ([1]; intraperitoneal (i.p) administration): not toxic | effect on HDAC1 activity (HDAC1): unaffected | cyclin D1 expression [2]: affected marginally | cyclin E expression ([2]; dose dependent): down regulated | inhibition of enhanced autoacetylation of p300 (p300): inhibit | percentage of polyploid cells (>4N) (KB cells): dramatic increase
